Data reported in patent publication US7642251B2, “Compounds for the treatment of hepatitis C” (Bristol-Myers Squibb Company, priority 2007, dated 2010).

What was measured:
[1] = test system: HCV replicon cells; experiment: HCV replicon FRET assay; format: cell-based; conditions: Hepatitis C virus; FRET assay; read-out: EC50
Text: FRET Assay Preparation. To perform the HCV FRET screening assay, 96-well cell culture plates were used. The FRET peptide (Anaspec, Inc.) (Taliani et al., Anal. Biochem. 1996, 240, 60-67) contains a fluorescence donor, EDANS, near one end of the peptide and an acceptor, DABCYL, near the other end. The fluorescence of the peptide is quenched by […] resonance energy transfer (RET) between the donor and the acceptor, but as the NS3 protease cleaves the peptide the products are released from RET quenching and the fluorescence of the donor becomes apparent. The assay reagent was made as follows: 5× cell Luciferase cell culture lysis reagent from Promega (#E153A) diluted to 1× with dH2O, NaCl added to 150 mM final, the FRET peptide diluted to 20 μM final from a 2 mM stock.
To prepare plates, HCV replicon cells, with or without a Renilla luciferase reporter gene, were trypsinized and placed into each well of a 96-well plate with titrated test compounds added in columns 3 through 12; columns 1 and 2 contained a control compound (HCV protease inhibitor), and the bottom row contained cells without compound. The plates were then placed in a CO2 incubator at 37° C.
Assays. Subsequent to addition of the test compounds described above (FRET Assay Preparation), at various times the plate was removed and Alamar blue solution (Trek Diagnostics, #00-100) was added per well as a measure of cellular toxicity. After reading in a Cytoflour 4000 instrument (PE Biosystems), plates were rinsed with PBS and then used for FRET assay by the addition of 30 ul of the FRET peptide assay reagent described above (FRET Assay Preparation) per well. The plate was then placed into the Cytoflour 4000 instrument which had been set to 340 excite/490 emission, automatic mode for 20 cycles and the plate read in a kinetic mode. Typically, the signal to noise using an endpoint analysis after the reads was at least three-fold. Alternatively, after Alamar blue reading, plates were rinsed with PBS, 50 ul of DMEM (high glucose) without phenol red was added and plates were then used for luciferase assay using the Promega Dual-Glo Luciferase Assay System.
Compound analysis was determined by quantification of the relative HCV replicon inhibition and the relative cytotoxicity values. To calculate cytoxicity values, the average Alamar Blue fluorescence signals from the control wells were set as 100% non-toxic. The individual signals in each of the compound test wells were then divided by the average control signal and multiplied by 100% to determine […]. To calculate the HCV replicon inhibition values, an average background value was obtained from the two wells containing the highest amount of HCV protease inhibitor at the end of the assay period. These numbers were similar to those obtained from naïve Huh-7 cells.
The background numbers were then subtracted from the average signal obtained from the control wells and this number was used as 100% activity. The individual signals in each of the compound test wells were then divided by the averaged control values after background subtraction and multiplied by 100% to determine percent activity. EC50 values for a protease inhibitor titration were calculated as the concentration which caused a 50% reduction in FRET or luciferase activity. The two numbers generated for the compound plate, percent cytoxicity and percent activity were used to determine compounds of interest for further analysis.

[2] = target: T1, HCV NS5B (Hepatitis C virus genotype 1b, UniProt Q9WMX2); experiment: Modified HCV NS5B RdRp enzyme assay (preincubation protocol); format: biochemical; conditions: preincubation protocol; read-out: IC50
T1 construct: The cDNA encoding the NS5B protein of HCV, genotype 1b; made in house; host or cells: E. coli BL21(DE3)
T1 sequence (Q9WMX2 2420-2992): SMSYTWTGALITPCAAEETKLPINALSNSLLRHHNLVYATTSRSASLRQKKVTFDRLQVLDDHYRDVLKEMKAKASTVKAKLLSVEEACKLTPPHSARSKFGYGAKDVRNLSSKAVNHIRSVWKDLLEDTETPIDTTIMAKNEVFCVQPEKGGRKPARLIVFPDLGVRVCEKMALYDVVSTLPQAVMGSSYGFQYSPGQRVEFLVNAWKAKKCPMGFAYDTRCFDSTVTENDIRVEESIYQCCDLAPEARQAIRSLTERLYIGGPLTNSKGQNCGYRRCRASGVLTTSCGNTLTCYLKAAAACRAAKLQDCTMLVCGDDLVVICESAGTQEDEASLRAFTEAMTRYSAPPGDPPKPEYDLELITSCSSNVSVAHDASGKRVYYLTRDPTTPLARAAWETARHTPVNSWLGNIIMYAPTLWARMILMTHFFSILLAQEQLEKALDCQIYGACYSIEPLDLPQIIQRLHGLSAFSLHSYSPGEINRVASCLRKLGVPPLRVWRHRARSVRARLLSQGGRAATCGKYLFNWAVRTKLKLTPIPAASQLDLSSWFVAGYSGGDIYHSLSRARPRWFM
Protocol: HCV NS5B RdRp cloning, expression, and purification. The cDNA encoding the NS5B protein of HCV, genotype 1b, was cloned into the pET21a expression vector. The protein was expressed with an 18 amino acid C-terminal truncation to enhance the solubility. The E. coli competent cell line BL21(DE3) was used for expression of the protein. Cultures were grown at 37° C. for ˜4 hours until the cultures reached an optical density of 2.0 at 600 nm. The cultures were cooled to 20° C. and induced with 1 mM IPTG. Fresh ampicillin was added to a final concentration of 50 μg/ml and the cells were grown overnight at 20° C.
Cell pellets (3 L) were lysed for purification to yield 15-24 mgs of purified NS5B. The lysis buffer consisted of 20 mM Tris-HCl, pH 7.4, 500 mM NaCl, 0.5% triton X-100, 1 mM DTT, 1 mM EDTA, 20% glycerol, 0.5 mg/ml lysozyme, 10 mM MgCl2, 15 ug/ml deoxyribonuclease I, and Complete™ protease inhibitor tablets (Roche). After addition of the lysis buffer, frozen cell pellets were resuspended using a tissue homogenizer. To reduce the viscosity of the sample, aliquots of the lysate were sonicated on ice using a microtip attached to a Branson sonicator. The sonicated lysate was centrifuged at 100,000×g for 1 hr at 4° C. and filtered through a 0.2 μm filter unit (Corning).
The protein was purified using three sequential chromatography steps: Heparin sepharose CL-6B, polyU sepharose 4B, and Hitrap SP sepharose (Pharmacia). The chromatography buffers were identical to the lysis buffer but contained no lysozyme, deoxyribonuclease I, MgCl2 or protease inhibitor and the NaCl concentration of the buffer was adjusted according to the requirements for charging the protein onto the column. Each column was eluted with a NaCl gradient which varied in length from 5-50 column volumes depending on the column type. After the final chromatography step, the resulting purity of the enzyme is >90% based on SDS-PAGE analysis. The enzyme was aliquoted and stored at −80° C.
Standard HCV NS5B RdRp enzyme assay. HCV RdRp genotype 1b assays were run in a final volume of 60 μl in 96 well plates (Costar 3912). The assay buffer is composed of 20 mM Hepes, pH 7.5, 2.5 mM KCl, 2.5 mM MgCl2, 1 mM DTT, 1.6 U RNAse inhibitor (Promega N2515), 0.1 mg/ml BSA (Promega R3961), and 2% glycerol. All compounds were serially diluted (3-fold) in DMSO and diluted further in water such that the final concentration of DMSO in the assay was 2%. HCV RdRp genotype 1b enzyme was used at a final concentration of 28 nM. A polyA template was used at 6 nM, and a biotinylated oligo-dT12 primer was used at 180 nM final concentration. Template was obtained commercially (Amersham 27-4110). Biotinylated primer was prepared by Sigma Genosys. 3H-UTP was used at 0.6 μCi (0.29 μM total UTP). Reactions were initiated by the addition of enzyme, incubated at 30° C. for 60 min, and stopped by adding 25 μl of 50 mM EDTA containing SPA beads (4 μg/μl, Amersham RPNQ 0007). Plates were read on a Packard Top Count NXT after >1 hr incubation at room temperature.
Modified HCV NS5B RdRp enzyme assay. A modified enzyme assay was performed essentially as described for the standard enzyme assay except for the following: The biotinylated oligo dT12 primer was precaptured on streptavidin-coated SPA beads by mixing primer and beads in assay buffer and incubating at room temperature for one hour. Unbound primer was removed after centrifugation. The primer-bound beads were resuspended in 20 mM Hepes buffer, pH 7.5 and used in the assay at final concentrations of 20 nM primer and 0.67 μg/μl beads. Order of addition in the assay: enzyme (14 nM) was added to diluted compound followed by the addition of a mixture of template (0.2 nM), 3H-UTP (0.6 μCi, 0.29 μM), and primer-bound beads, to initiate the reaction; concentrations given are final. Reactions were allowed to proceed for 4 hours at 30° C.
IC50 values for compounds were determined using seven different [I]. […]

| Structure (SMILES) | EC50 [1] [nM] | IC50 [2] [nM] |
| --- | --- | --- |
| COc1ccc2c(c1)C=C(c1ccccc1S(=O)(=O)N(C)CCN(C)C)Cn1c-2c(C2CCCCC2)c2ccc(C(=O)NS(=O)(=O)C(C)C)cc21 | 4.58 to 500 | 4.58 to 500 |
| COc1ccc2c(c1)C=C(c1ccccc1CN1CCOCC1)Cn1c-2c(C2CCCCC2)c2ccc(C(=O)NS(=O)(=O)C(C)C)cc21 | 4.58 to 500 | 4.58 to 500 |
| COc1ccc2c(c1)C=C(c1cccc(OCCN(C)C)c1)Cn1c-2c(C2CCCCC2)c2ccc(C(=O)NS(=O)(=O)C(C)C)cc21 | > 500 | 4.58 to 500 |
